Test results as given in US7192906B2, “Substituted pyrazole derivatives, production process thereof, and herbicide compositions containing the derivatives” (SDS Biotech K.K., priority 2001, dated 2007).

Each compound was assayed on Chenopodium album (assay: Test Example 1 upland field foliage treatment). Conditions: Table 4, upland field foliage treatment, index 0-5.
Format: in vivo
Method in brief: (§1)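 Seeds sown in upland soil in pots and covered with about 1 cm soil; on day 14 after sowing, diluted wettable powder applied uniformly to leaves at 1 kg active ingredient per hectare. Weed control or crop phytotoxicity scored visually 21 days after application on a 0–5 scale (5 = ≥90%, 0 = <10%).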
With `CON=C(Cn1cc(C)c(-c2ccccc2)n1)C(=O)NC1CC1` [Compound 21, 2-methoxyimino-3-(phenyl-4-methyl-pyrazole)-1-yl-propanoic acid-N-cyclopropylamide] the “Herbicidal activity CA: Chenopodium album” value (shortened to “Herbicidal activity CA”) was 5 (herbicidal effect of not less than 90%, or phytotoxicity of 90% or more). In the case of `CON=C(Cn1cc(C)c(-c2ccccc2)n1)C(=O)NC1CCCC1` [Compound 23], the “Herbicidal activity CA” value was 4 (herbicidal effect of not less than 70% and less than 90%, or phytotoxicity of 70% or more and less than 90%).

What follows are compounds tested on Digitaria adscendens (assay: Test Example 1 upland field foliage treatment). Conditions: Table 4, upland field foliage treatment, index 0-5.
Format: in vivo
Method in brief: as §1
In the case of `CON=C(Cn1cc(C)c(-c2ccccc2)n1)C(=O)NC1CC1` [Compound 21, 2-methoxyimino-3-(phenyl-4-methyl-pyrazole)-1-yl-propanoic acid-N-cyclopropylamide], the “Herbicidal activity DA: Digitaria adscendens” value (from here on “Herbicidal activity DA”) was 5 (herbicidal effect of not less than 90%, or phytotoxicity of 90% or more). `CON=C(Cn1cc(C)c(-c2ccccc2)n1)C(=O)NC1CCCC1` [Compound 23] was tested, and the “Herbicidal activity DA” value was 3 (herbicidal effect of not less than 50% and less than 70%, or phytotoxicity of 50% or more and less than 70%).

The compounds below were run on Setaria viridis (assay: Test Example 1 upland field foliage treatment). Conditions: Table 4, upland field foliage treatment, index 0-5.
Format: in vivo
Method in brief: as §1
With `CON=C(Cn1cc(C)c(-c2ccccc2)n1)C(=O)NC1CC1` [Compound 21, 2-methoxyimino-3-(phenyl-4-methyl-pyrazole)-1-yl-propanoic acid-N-cyclopropylamide] the “Herbicidal activity SV: Setaria viridis” value was 5 (herbicidal effect of not less than 90%, or phytotoxicity of 90% or more). `CON=C(Cn1cc(C)c(-c2ccccc2)n1)C(=O)NC1CCCC1` [Compound 23] was tested, and the “Herbicidal activity SV: Setaria viridis” value was 3 (herbicidal effect of not less than 50% and less than 70%, or phytotoxicity of 50% or more and less than 70%).

What follows are compounds tested on Stellaria media (assay: Test Example 1 upland field foliage treatment). Conditions: Table 4, upland field foliage treatment, index 0-5.
Format: in vivo
Method in brief: as §1
In the case of `CON=C(Cn1cc(C)c(-c2ccccc2)n1)C(=O)NC1CC1` [Compound 21, 2-methoxyimino-3-(phenyl-4-methyl-pyrazole)-1-yl-propanoic acid-N-cyclopropylamide], the “Herbicidal activity SM: Stellaria media” value was 5 (herbicidal effect of not less than 90%, or phytotoxicity of 90% or more). With `CON=C(Cn1cc(C)c(-c2ccccc2)n1)C(=O)NC1CCCC1` [Compound 23] the “Herbicidal activity SM: Stellaria media” value was 4 (herbicidal effect of not less than 70% and less than 90%, or phytotoxicity of 70% or more and less than 90%).

Each compound was assayed on soybean (Glycine max) (assay: Test Example 1 upland field foliage treatment, crop phytotoxicity). Conditions: Table 4, upland field foliage treatment, index 0-5.
Format: in vivo
Method in brief: as §1
`CON=C(Cn1cc(C)c(-c2ccccc2)n1)C(=O)NC1CC1` [Compound 21, 2-methoxyimino-3-(phenyl-4-methyl-pyrazole)-1-yl-propanoic acid-N-cyclopropylamide] was tested, and the “Herbicidal activity (phytotoxicity) GM: Soybean (Glycine max)” value (“Herbicidal activity (phytotoxicity) GM” below) was 0 (herbicidal effect of not less than 0% and less than 10%, or phytotoxicity of 0% or more and less than 10%). `CON=C(Cn1cc(C)c(-c2ccccc2)n1)C(=O)NC1CCCC1` [Compound 23] was tested, and the “Herbicidal activity (phytotoxicity) GM” value was 0 (herbicidal effect of not less than 0% and less than 10%, or phytotoxicity of 0% or more and less than 10%).

The compounds below were run on wheat (Triticum aestivum) in the same assay as above. Conditions: Table 4, upland field foliage treatment, index 0-5.
Format: in vivo
Method in brief: as §1
In the case of `CON=C(Cn1cc(C)c(-c2ccccc2)n1)C(=O)NC1CC1` [Compound 21, 2-methoxyimino-3-(phenyl-4-methyl-pyrazole)-1-yl-propanoic acid-N-cyclopropylamide], the “Herbicidal activity (phytotoxicity) TA: Wheat (Triticum aestivum)” value (“Herbicidal activity (phytotoxicity) TA” below) was 0 (herbicidal effect of not less than 0% and less than 10%, or phytotoxicity of 0% or more and less than 10%). In the case of `CON=C(Cn1cc(C)c(-c2ccccc2)n1)C(=O)NC1CCCC1` [Compound 23], the “Herbicidal activity (phytotoxicity) TA” value was 0 (herbicidal effect of not less than 0% and less than 10%, or phytotoxicity of 0% or more and less than 10%).

These compounds were tested on Chenopodium album (assay: Test Example 2 upland soil treatment). Conditions: Table 5, upland soil treatment, index 0-5.
Format: in vivo
Method in brief: (§2)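 Score 0–5 read at day 21 (5 = ≥90% effect or phytotoxicity, 0 = <10%). Wettable powder diluted in water to 1 kg a.i./ha, applied uniformly to upland soil one day after sowing; seeds covered with ~1 cm soil.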
`CON=C(Cn1cc(C)c(-c2ccccc2)n1)C(=O)NC1CC1` [Compound 21, 2-methoxyimino-3-(phenyl-4-methyl-pyrazole)-1-yl-propanoic acid-N-cyclopropylamide] was tested, and the “Herbicidal activity CA” value was 5 (herbicidal effect of not less than 90%, or phytotoxicity of 90% or more). `CON=C(Cn1cc(C)c(-c2ccccc2)n1)C(=O)NC1CCCC1` [Compound 23] was tested, and the “Herbicidal activity CA” value was 5 (herbicidal effect of not less than 90%, or phytotoxicity of 90% or more).

Each compound was assayed on Digitaria adscendens (assay: Test Example 2 upland soil treatment). Conditions: Table 5, upland soil treatment, index 0-5.
Format: in vivo
Method in brief: as §2
In the case of `CON=C(Cn1cc(C)c(-c2ccccc2)n1)C(=O)NC1CC1` [Compound 21, 2-methoxyimino-3-(phenyl-4-methyl-pyrazole)-1-yl-propanoic acid-N-cyclopropylamide], the “Herbicidal activity DA” value was 4 (herbicidal effect of not less than 70% and less than 90%, or phytotoxicity of 70% or more and less than 90%). With `CON=C(Cn1cc(C)c(-c2ccccc2)n1)C(=O)NC1CCCC1` [Compound 23] the “Herbicidal activity DA” value was 4 (herbicidal effect of not less than 70% and less than 90%, or phytotoxicity of 70% or more and less than 90%).

These compounds were tested on Setaria viridis (assay: Test Example 2 upland soil treatment). Conditions: Table 5, upland soil treatment, index 0-5.
Format: in vivo
Method in brief: as §2
With `CON=C(Cn1cc(C)c(-c2ccccc2)n1)C(=O)NC1CC1` [Compound 21, 2-methoxyimino-3-(phenyl-4-methyl-pyrazole)-1-yl-propanoic acid-N-cyclopropylamide] the “Herbicidal activity SV: Setaria viridis” value was 4 (herbicidal effect of not less than 70% and less than 90%, or phytotoxicity of 70% or more and less than 90%). `CON=C(Cn1cc(C)c(-c2ccccc2)n1)C(=O)NC1CCCC1` [Compound 23] was tested, and the “Herbicidal activity SV: Setaria viridis” value was 4 (herbicidal effect of not less than 70% and less than 90%, or phytotoxicity of 70% or more and less than 90%).

These compounds were tested on Stellaria media (assay: Test Example 2 upland soil treatment). Conditions: Table 5, upland soil treatment, index 0-5.
Format: in vivo
Method in brief: as §2
With `CON=C(Cn1cc(C)c(-c2ccccc2)n1)C(=O)NC1CC1` [Compound 21, 2-methoxyimino-3-(phenyl-4-methyl-pyrazole)-1-yl-propanoic acid-N-cyclopropylamide] the “Herbicidal activity SM: Stellaria media” value was 5 (herbicidal effect of not less than 90%, or phytotoxicity of 90% or more). `CON=C(Cn1cc(C)c(-c2ccccc2)n1)C(=O)NC1CCCC1` [Compound 23] was tested, and the “Herbicidal activity SM: Stellaria media” value was 4 (herbicidal effect of not less than 70% and less than 90%, or phytotoxicity of 70% or more and less than 90%).

Each compound was assayed on soybean (Glycine max) (assay: Test Example 2 upland soil treatment, crop phytotoxicity). Conditions: Table 5, upland soil treatment, index 0-5.
Format: in vivo
Method in brief: as §2
`CON=C(Cn1cc(C)c(-c2ccccc2)n1)C(=O)NC1CC1` [Compound 21, 2-methoxyimino-3-(phenyl-4-methyl-pyrazole)-1-yl-propanoic acid-N-cyclopropylamide] was tested, and the “Herbicidal activity (phytotoxicity) GM” value was 0 (herbicidal effect of not less than 0% and less than 10%, or phytotoxicity of 0% or more and less than 10%). `CON=C(Cn1cc(C)c(-c2ccccc2)n1)C(=O)NC1CCCC1` [Compound 23] was tested, and the “Herbicidal activity (phytotoxicity) GM” value was 0 (herbicidal effect of not less than 0% and less than 10%, or phytotoxicity of 0% or more and less than 10%).

Each compound was assayed on wheat (Triticum aestivum) in the same assay as above. Conditions: Table 5, upland soil treatment, index 0-5.
Format: in vivo
Method in brief: as §2
In the case of `CON=C(Cn1cc(C)c(-c2ccccc2)n1)C(=O)NC1CC1` [Compound 21, 2-methoxyimino-3-(phenyl-4-methyl-pyrazole)-1-yl-propanoic acid-N-cyclopropylamide], the “Herbicidal activity (phytotoxicity) TA” value was 0 (herbicidal effect of not less than 0% and less than 10%, or phytotoxicity of 0% or more and less than 10%). `CON=C(Cn1cc(C)c(-c2ccccc2)n1)C(=O)NC1CCCC1` [Compound 23] was tested, and the “Herbicidal activity (phytotoxicity) TA” value was 0 (herbicidal effect of not less than 0% and less than 10%, or phytotoxicity of 0% or more and less than 10%).

What follows are compounds tested on Ammannia multiflora (assay: Test Example 3 paddy field treatment). Conditions: paddy field treatment, wettable powder, active ingredient 1 kg per hectare, 21st day after the dropping, index 0-5.
Format: in vivo
Method in brief: (§3)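 Weed seeds sown in puddled paddy soil under 4 cm water, with two-leaf Koshihikari rice transplanted; 10 days later a wettable powder was applied to the water surface at 1 kg active ingredient/ha. Scored 21 days after application on a 0–5 scale (0 = <10%, 5 = ≥90% herbicidal effect or phytotoxicity).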
For `CON=C(Cn1cc(C)c(-c2ccccc2)n1)C(=O)NC1CC1` [Compound 21, 2-methoxyimino-3-(phenyl-4-methyl-pyrazole)-1-yl-propanoic acid-N-cyclopropylamide], the “Herbicidal activity AM” value was 5 (herbicidal effect of not less than 90%, or phytotoxicity of 90% or more). For `CON=C(Cn1cc(C)c(-c2ccccc2)n1)C(=O)NC1CCCC1` [Compound 23], the “Herbicidal activity AM” value was 5 (herbicidal effect of not less than 90%, or phytotoxicity of 90% or more).

These compounds were tested on Echinochloa crusgalli (assay: Test Example 3 paddy field treatment). Conditions: paddy field treatment, wettable powder, active ingredient 1 kg per hectare, 21st day after the dropping, index 0-5.
Format: in vivo
Method in brief: as §3
For `CON=C(Cn1cc(C)c(-c2ccccc2)n1)C(=O)NC1CC1` [Compound 21, 2-methoxyimino-3-(phenyl-4-methyl-pyrazole)-1-yl-propanoic acid-N-cyclopropylamide], the “Herbicidal activity EC” value was 5 (herbicidal effect of not less than 90%, or phytotoxicity of 90% or more). With `CON=C(Cn1cc(C)c(-c2ccccc2)n1)C(=O)NC1CCCC1` [Compound 23] the “Herbicidal activity EC” value was 4 (herbicidal effect of not less than 70% and less than 90%, or phytotoxicity of 70% or more and less than 90%).

The compounds below were run on Monochoria vaginalis (assay: Test Example 3 paddy field treatment). Conditions: paddy field treatment, wettable powder, active ingredient 1 kg per hectare, 21st day after the dropping, index 0-5.
Format: in vivo
Method in brief: as §3
With `CON=C(Cn1cc(C)c(-c2ccccc2)n1)C(=O)NC1CC1` [Compound 21, 2-methoxyimino-3-(phenyl-4-methyl-pyrazole)-1-yl-propanoic acid-N-cyclopropylamide] the “Herbicidal activity MV” value was 5 (herbicidal effect of not less than 90%, or phytotoxicity of 90% or more). For `CON=C(Cn1cc(C)c(-c2ccccc2)n1)C(=O)NC1CCCC1` [Compound 23], the “Herbicidal activity MV” value was 5 (herbicidal effect of not less than 90%, or phytotoxicity of 90% or more).

Each compound was assayed on Scirpus juncoides (assay: Test Example 3 paddy field treatment). Conditions: paddy field treatment, wettable powder, active ingredient 1 kg per hectare, 21st day after the dropping, index 0-5.
Format: in vivo
Method in brief: as §3
In the case of `CON=C(Cn1cc(C)c(-c2ccccc2)n1)C(=O)NC1CC1` [Compound 21, 2-methoxyimino-3-(phenyl-4-methyl-pyrazole)-1-yl-propanoic acid-N-cyclopropylamide], the “Herbicidal activity SJ” value was 5 (herbicidal effect of not less than 90%, or phytotoxicity of 90% or more). For `CON=C(Cn1cc(C)c(-c2ccccc2)n1)C(=O)NC1CCCC1` [Compound 23], the “Herbicidal activity SJ” value was 4 (herbicidal effect of not less than 70% and less than 90%, or phytotoxicity of 70% or more and less than 90%).

The compounds below were run on Rice (Oryza sativa) (assay: Test Example 3 paddy field treatment, crop phytotoxicity). Conditions: paddy field treatment, transplanted rice Koshihikari, wettable powder, active ingredient 1 kg per hectare, 21st day after the dropping, index 0-5.
Format: in vivo
Method in brief: as §3
`CON=C(Cn1cc(C)c(-c2ccccc2)n1)C(=O)NC1CC1` [Compound 21, 2-methoxyimino-3-(phenyl-4-methyl-pyrazole)-1-yl-propanoic acid-N-cyclopropylamide] was tested, and the “Herbicidal activity OS (phytotoxicity to rice)” value was 0 (herbicidal effect of not less than 0% and less than 10%, or phytotoxicity of 0% or more and less than 10%). In the case of `CON=C(Cn1cc(C)c(-c2ccccc2)n1)C(=O)NC1CCCC1` [Compound 23], the “Herbicidal activity OS (phytotoxicity to rice)” value was 0 (herbicidal effect of not less than 0% and less than 10%, or phytotoxicity of 0% or more and less than 10%).
